{
  "source": "paper PMC545074",
  "about": "“The two neutrophil members of the formylpeptide receptor family activate the NADPH-oxidase through signals that differ in sensitivity to a gelsolin derived phosphoinositide-binding peptide” (BMC Cell Biology, 2004)",
  "key": {"FPRL1 [1]": {"molecular_target": "T1, FPRL1 (Homo sapiens, UniProt P25090)", "T1 construct": "Neutrophil granulocytes were isolated from buffy coats obtained from healthy adults; endogenous in cells; host or cells: human neutrophil granulocytes from buffy coats of healthy adults", "T1 sequence (P25090 1-351)": "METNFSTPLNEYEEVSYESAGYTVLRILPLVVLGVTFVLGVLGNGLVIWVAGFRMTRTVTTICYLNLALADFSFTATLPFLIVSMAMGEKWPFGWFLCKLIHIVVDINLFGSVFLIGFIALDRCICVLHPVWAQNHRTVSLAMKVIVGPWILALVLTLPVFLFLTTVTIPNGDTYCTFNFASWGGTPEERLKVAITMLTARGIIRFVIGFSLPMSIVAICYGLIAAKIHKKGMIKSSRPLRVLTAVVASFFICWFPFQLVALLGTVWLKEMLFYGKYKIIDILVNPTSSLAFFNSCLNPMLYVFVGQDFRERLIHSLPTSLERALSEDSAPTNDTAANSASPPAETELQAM", "assay": "Cytosolic calcium mobilization in neutrophils (Fura-2 fluorescence), FPRL1 agonist WKYMVM", "type": "cell-based", "procedure": "(§1) Neutrophil granulocytes were isolated from buffy coats obtained from healthy adults. After dextran sedimentation at 1 × g, hypotonic lysis of the remaining erythrocytes, and centrifugation in a Ficoll-Paque gradient, the neutrophils were washed twice and resuspended (1 × 10^7 /ml) in Krebs-Ringer phosphate buffer containing glucose (10 mM), Ca^2+ (1 mM), and Mg^2+ (1.5 mM) (KRG; pH 7.3). The cells were stored on melting ice and used within 120 min of preparation.\n(§2) Neutrophils at a density of 2 × 10^7/ml in Ca^2+-free KRG supplemented with bovine serum albumin (BSA, 0.1%) were incubated with the acetoxymethylated derivative fura-2/AM (2 μM) at room temperature for 30 minutes. The cells were washed twice and resuspended in KRG, adjusted to 2 × 10^7/ml and kept protected from light on ice until use. Cells with or without PBP10 were equilibrated for 5 minutes at 37°C, after which the peptide agonist was added. The fura-2 fluorescence was followed with a luminescence spectrometer (LS50B; Perkin Elmer Corp.) using excitation wavelengths of 340 nm and 380 nm, and an emission wavelength of 510 nm and the [Ca^2+]i was calculated as described earlier."}, "FPR [2]": {"test_system": "FPR", "assay": "Cytosolic calcium mobilization in neutrophils (Fura-2 fluorescence), FPR agonist fMLF", "type": "cell-based, human", "procedure": "as §1, §2"}, "FPRL1 [3]": {"molecular_target": "T1, FPRL1", "parameters": "method as in PMID 15147563", "conditions": "cited from earlier work"}, "FPR [4]": {"test_system": "FPR", "parameters": "method as in PMID 15147563", "conditions": "cited from earlier work"}, "FPRL1 [5]": {"molecular_target": "T1, FPRL1", "assay": "Neutrophil NADPH-oxidase activity (superoxide anion release, isoluminol-enhanced chemiluminescence) induced through FPRL1", "type": "cell-based", "conditions": "for Effect on WKYMVM induced NADPH-oxidase activity (superoxide production): FPRL1 stimulated by WKYMVM, concentration of test substance not given, antagonists and rhodamine: data not shown", "procedure": "as §1\n(§3) Neutrophil production and release of superoxide anions was measured by means of an isoluminol-enhanced chemiluminescence (CL) assay. The CL activity was measured in a six-channel Biolumat LB 9505 apparatus (Berthold Co., Wildbad, Germany), using disposable 4-ml polypropylene tubes with a 900-μl reaction mixture containing 10^5–10^6 neutrophils, horseradish peroxidase (4 U) and isoluminol (20 μM) with and without cytochalasin B or PBP10. The measuring tubes were equilibrated for 5 to 10 minutes at 37°C and the cells were activated by addition of a receptor specific peptide agonist, fMLF for FPR and WKYMVM for FPRL1. The light emission was recorded continuously. Details about the CL technique are given in [45]."}, "FPR [6]": {"test_system": "FPR", "assay": "Neutrophil NADPH-oxidase activity (superoxide anion release, isoluminol-enhanced chemiluminescence) induced through FPR", "type": "cell-based, human", "conditions": "for Effect on fMLF induced NADPH-oxidase activity (superoxide production): FPR stimulated by fMLF, concentration of test substance not given, data not shown", "procedure": "as §1, §3"}, "FPRL1 [7]": {"molecular_target": "T1, FPRL1", "assay": "Mobilization of CR3 to the neutrophil cell surface (FACS), WKYMVM induced", "type": "cell-based", "conditions": "PBP10 1 μM at 37°C for 5 minutes, then WKYMVM 100 nM for 10 minutes, four independent experiments", "procedure": "as §1\n(§4) The exposure of CR3 (CD11b/CD18) on the neutrophil cell surface was assessed by immunostaining and FACS-analysis. Cells challenged with peptide agonists with or without PBP10 were fixed with ice-cold paraformaldehyde and washed with FACSwash (PBS, 0.02% NaN3), after which the cells were incubated at 4°C with phycoerythrin-conjugated anti-CR3 antibodies (CD11b; Becton Dickinson 10 μl/10^6 cells) before analysis using a FACScan (Becton Dickinson, Mountain View, CA)."}, "FPR [8]": {"test_system": "FPR", "assay": "Mobilization of CR3 to the neutrophil cell surface (FACS), fMLF induced", "type": "cell-based, human", "conditions": "PBP10 1 μM at 37°C for 5 minutes, then fMLF 100 nM for 10 minutes, four independent experiments", "procedure": "as §1, §4"}, "[9]": {"parameters": "method as in earlier work", "conditions": "cited from earlier work"}, "[10]": {"test_system": "plasma membrane of neutrophils and other cells", "conditions": "cited from earlier work"}, "PKC": {"test_system": "PKC", "assay": "Neutrophil NADPH-oxidase activity induced by the receptor independent PKC activator PMA", "type": "cell-based, human", "conditions": "neutrophils incubated 120 minutes with PTX 500 ng/ml, then PMA 100 nM"}, "[11]": {"conditions": "human neutrophils, 100 nM, Fura-2"}},
  "note": "Like-named read-outs stand apart in the source and are kept apart here. Where a SMILES comes first, the peptide text is derived from it. Where no end group is shown, it is not given here. The star is where a group is joined. RhodamineB = CCN(CC)c1ccc2c(-c3ccccc3C(=O)*)c3ccc(=[N+](CC)CC)cc-3oc2c1",
  "data": [
    {"molecule": "C=C1[C@@H](C)[C@H]2[C@H](Cc3ccccc3)NC(=O)[C@]23OC(=O)/C=C/[C@H](O)CCC[C@@H](C)C/C=C/[C@H]3[C@@H]1O", "note": "[cytochalasin B]", "values": [
      {"measurement": "Effect of cytochalasin B on the transient rise in intracellular calcium induced by active FPRL1", "setting": "FPRL1 [1]; data not shown", "result": "not affected"},
      {"measurement": "Effect of cytochalasin B on the transient rise in intracellular calcium induced by active FPR", "setting": "FPR [2]; data not shown", "result": "not affected"},
      {"measurement": "Effect of cytochalasin B on the neutrophil response to FPRL1 agonists", "setting": "FPRL1 [3]", "result": "augmented and prolonged"},
      {"measurement": "Effect of cytochalasin B on the neutrophil response to FPR agonists", "setting": "FPR [4]", "result": "augmented and prolonged"}
    ]},
    {"molecule": "CCN(CC)c1ccc2c(-c3ccccc3C(=O)N[C@@H](CCC(N)=O)C(=O)N[C@@H](CCCNC(=N)N)C(=O)N[C@@H](CC(C)C)C(=O)N[C@@H](Cc3ccccc3)C(=O)N[C@@H](CCC(N)=O)C(=O)N[C@H](C(=O)N[C@@H](CCCCN)C(=O)NCC(=O)N[C@@H](CCCNC(=N)N)C(=O)N[C@@H](CCCNC(=N)N)C(=O)O)C(C)C)c3ccc(=[N+](CC)CC)cc-3oc2c1", "note": "[PBP10, rhodamine-B-QRLFQVKGRR] (RhodamineB-QRLFQVKGRR-OH; C-terminus assumed)", "values": [
      {"measurement": "IC50", "setting": "FPRL1 [5]", "result": 50, "unit": "nM"},
      {"measurement": "Effect on NADPH-oxidase activity induced by WKYMVM in the presence of cytochalasin B", "setting": "FPRL1 [5]; cytochalasin B 2.5 μg/ml, WKYMVM 100 nM", "result": "largely inhibited"},
      {"measurement": "Effect on WKYMVM induced NADPH-oxidase activity (superoxide production)", "setting": "FPRL1 [5]; human neutrophils", "result": "totally inhibited"},
      {"measurement": "Effect on the FPR-mediated NADPH-oxidase response in the presence of cytochalasin B", "setting": "FPR [6]; cytochalasin B 2.5 μg/ml, fMLF 100 nM, PBP10 5 μM (higher concentrations required)", "result": "only partly inhibited"},
      {"measurement": "Effect on the fMLF induced NADPH-oxidase activity", "setting": "FPR [6]; human neutrophils, PBP10 at concentrations up to 10 μM prior to activation with fMLF, isoluminol chemiluminescence", "result": "no effect"},
      {"measurement": "Effect on the calcium response induced by WKYMVM", "setting": "FPRL1 [1]; PBP10 1 μM, 5 minutes at 37°C prior to WKYMVM 100 nM, Fura-2, representative experiment", "result": "did not alter"},
      {"measurement": "Effect on the calcium response induced by fMLF", "setting": "FPR [2]; PBP10 1 μM, 5 minutes at 37°C prior to fMLF 100 nM, Fura-2, representative experiment", "result": "did not alter"},
      {"measurement": "Effect on WKYMVM induced secretory response (mobilization of CR3 to the cell surface)", "setting": "FPRL1 [7]", "result": "blocked"},
      {"measurement": "Effect on FPR induced granule mobilization (CR3 exposure)", "setting": "FPR [8]", "result": "without effect"},
      {"measurement": "PIP2 binding", "setting": "[9]", "result": "PIP2 binding capacity"},
      {"measurement": "Membrane permeability (ability to cross the plasma membrane)", "setting": "[10]; neutrophils and other cells", "result": "membrane permeable"}
    ]},
    {"molecule": "pertussis toxin", "values": [
      {"measurement": "Effect of pertussis toxin on the FPRL1 mediated oxidase response", "setting": "FPRL1 [5]; neutrophils incubated 120 minutes with PTX 500 ng/ml, then WKYMVM 100 nM", "result": "inhibited"},
      {"measurement": "Effect of pertussis toxin on the FPR mediated oxidase response", "setting": "FPR [6]; neutrophils incubated 120 minutes with PTX 500 ng/ml, then fMLF 100 nM", "result": "inhibited"},
      {"measurement": "Effect of pertussis toxin on oxidase activity induced by PMA", "setting": "PKC", "result": "no reduction"}
    ]},
    {"molecule": "cyclosporine H", "values": [
      {"measurement": "Effect on WKYMVM induced NADPH-oxidase activity (superoxide production)", "setting": "FPRL1 [5]; human neutrophils", "result": "without effect"},
      {"measurement": "Effect on fMLF induced NADPH-oxidase activity (superoxide production)", "setting": "FPR [6]; human neutrophils", "result": "totally inhibited"}
    ]},
    {"molecule": "WRWWWW [FPRL1 specific antagonist]", "values": [
      {"measurement": "Effect on WKYMVM induced NADPH-oxidase activity (superoxide production)", "setting": "FPRL1 [5]; human neutrophils", "result": "totally inhibited"},
      {"measurement": "Effect on fMLF induced NADPH-oxidase activity (superoxide production)", "setting": "FPR [6]; human neutrophils", "result": "not affected"}
    ]},
    {"molecule": "Rh-VKGRRG (RhodamineB-VKGRRG) [truncated rhodamine labeled peptide]", "values": [
      {"measurement": "IC50", "setting": "FPRL1 [5]; human neutrophils treated with the peptide prior to activation with WKYMVM, superoxide release by isoluminol chemiluminescence, 37°C, Fig 1D three independent experiments, read-out: IC50 value for the WKYMVM induced NADPH-oxidase response", "result": 1000, "unit": "nM"}
    ]},
    {"molecule": "QRLFQVKGRR", "values": [
      {"measurement": "Effect of the unconjugated peptide on the WKYMVM induced neutrophil oxidase activity", "setting": "FPRL1 [5]; 1 μM final concentration, 37°C for 5 minutes, then WKYMVM 100 nM", "result": "no effect"},
      {"measurement": "PIP2 binding", "setting": "[9]", "result": "same PIP2-binding characteristics as PBP10"},
      {"measurement": "Membrane permeability (ability to cross the plasma membrane)", "setting": "[10]", "result": "lacks the ability to cross the plasma membrane"}
    ]},
    {"molecule": "N-formyl-Met-Leu-Phe [fMLF, prototype FPR agonist]", "values": [
      {"measurement": "Agonist-induced oxidative burst (release of superoxide anions) through FPR", "setting": "FPR [6]", "result": "robust oxidative burst"},
      {"measurement": "Agonist-induced change in cytosolic calcium through FPR", "setting": "FPR [2]; [11]", "result": "rapid and transient increase"}
    ]},
    {"molecule": "Trp-Lys-Tyr-Met-Val-Met-NH2 [WKYMVM, FPRL1 specific hexapeptide agonist]", "values": [
      {"measurement": "Agonist-induced oxidative burst (release of superoxide anions) through FPRL1", "setting": "FPRL1 [5]; human neutrophils, 100 nM and 20 nM shown in Fig 1A", "result": "robust oxidative burst"},
      {"measurement": "Agonist-induced change in cytosolic calcium through FPRL1", "setting": "FPRL1 [1]; [11]", "result": "rapid and transient increase"}
    ]},
    {"molecule": "COC[C@H]1OC(=O)c2coc3c2[C@@]1(C)C1=C(C3=O)[C@@H]2CCC(=O)[C@@]2(C)C[C@H]1OC(C)=O", "note": "[Wortmannin]", "values": [
      {"measurement": "Effect of the PI3K inhibitor on oxidase activity induced by WKYMVM", "setting": "FPRL1 [5]; neutrophils incubated with different concentrations at 37°C for 30 minutes, then WKYMVM 100 nM, representative experiment", "result": "largely inhibited"},
      {"measurement": "Effect of the PI3K inhibitor on oxidase activity induced by fMLF", "setting": "FPR [6]; neutrophils incubated with different concentrations at 37°C for 30 minutes, then fMLF 100 nM, representative experiment", "result": "largely inhibited"}
    ]}
  ]
}
